These results are taken from patent US20190328857A1, “CALR AND JAK2 VACCINE COMPOSITIONS” (IO Biotech ApS, priority 2016, published 2019).

Type in all cases: cell-based, human
In assay [1] the test system is PBMC from healthy donors. Nature of the assay: IFN-γ ELISPOT on PBMC from healthy donors. Conditions: for healthy donors with a significant response in IFN-γ ELISPOT / healthy donors with a significant response in IFN-γ ELISPOT, percentage: of 21 (CALRLong1), 23 (CALRLong2), 9 (CALRLong4), 7 (CALRLong5) analyzed. The source says:
(§1) The ELISPOT assay is based on the detection of antigen induced release of cytokines—most often IFN-γ—by single T-cells upon triggering of its T-cell receptor. Reactivity of a single T-cell can be detected and quantified via binding of the respective cytokine on special nitrocellulose filter plates. When a T-cell recognizes the peptide epitope examined, the T-cell releases cytokines that are detected by a colorimetric reaction using an enzyme conjugated to a secondary cytokine specific antibody. The reaction product is visible as a spot. Ideally, each spot represents the cytokines secreted by a single activated cell. ELISPOTs were performed and analyzed as described previously (Munir et al., 2013). PBMCs were tested in different concentrations to ensure an optimal response. The distribution-free resampling method, described by Moodie et al., was used for statistical analyses and a p-value ≤0.05 was deemed a T-cell response (Moodie et al., 2010).
PBMC from healthy donors were analyzed by IFN-γ ELISPOTs as described in Example 1 for immune responses against the CARL-mutant epitopes CALRLong1 ([…]), CALRLong2 ([…]), CALRLong4 ([…]) and CALRLong5 ([…]). […]

Assay [2] has as its system CALRLong1-specific T-cells. Nature of the assay: Intracellular cytokine staining of CALRLong1-specific T-cell culture stimulated with peptide. Conditions: after three stimulations with autologous dendritic cells. As for the experimental part: Fresh PBMCs were first enriched for CD14+ cells using MACS CD14 MicroBeads (Miltenyi Biotech GmbH, Bergisch Gladbach, Germany). This was considered day 0. The resulting monocyte-depleted cell culture was termed peripheral blood lymphocytes (PBL). The enriched cells were cultured using CellGro (CellGenix GmbH, Freiburg, Germany), and stimulated with GM-CSF (1000 U/ml) and IL-4 (250 U/ml) (both PeproTech, Rocky Hill, N.J., USA). The next day, to generate fast dendritic cells (fastDC), we treated half of the enriched cells with a maturation cocktail comprising IFN-γ (1000 U/ml) (PeproTech, Rocky Hill, N.J., USA), PolyI:C (20 μg/ml) (Sigma-Aldrich, St. Louis, Mo., USA) and CALRLong1 peptide. PBL were cultured overnight in X-VIVO medium (Lonza Group Ltd., Basel, Switzerland) and then stimulated with half of the fastDC. The other half of the fastDC were frozen for later use.
The other half of the enriched cells were cultured until day 7, at which time these cells were treated with the same maturation cocktail as above, to generate mature dendritic cells (mDC). The next day, these mDC were used to stimulate PBLs. On day 9, IL-2 (120 U/mL) (Novartis, Basel, Switzerland) and IL-7 (40 U/ml) (PeproTech, Rocky Hill, N.J., USA) was added. On day 14, we thawed the fastDC that had been frozen on day 2, and used these cells to stimulate the PBL. On day 16 and day 24 we added, IL-2 and IL-7 in the concentrations mentioned above.
At day 38 of the T-cell culture, we stimulated the T-cells with CALRLong1 peptide for 4 h and next isolated IFN-γ secreting cells using the MACS IFN-γ secretion assay. The isolated cells were expanded using a rapid expansion protocol. The vast majority of cells that reacted to CALRLong1 peptide stimulation were CD4^+ T-cells; thus, we isolated CD4^+ T cells from the REP culture using the EasySep Human CD4 isolation Kit (StemCell Technologies, Inc., Vancouver, BC, Canada). The enriched CD4^+ T-cells were then cloned by limiting dilution, and growing T-cell clones were rapidly expanded using feeder cells and high dose IL-2 (6000 u/ml). T-cell receptor clonotyping of the cloned cells was performed by denaturing gradient gel electrophoresis as previously described.
Frozen T-cells were thawed one day prior to assaying, and in experiments examining CD107a expression, a CD107a-PE antibody was added to cells directly after addition of peptide or target cells. After one hour of stimulation, protein-transport inhibitor Brefeldin A (BD Biosciences, San Jose, Calif., USA) was added to the cells which were then stimulated for four h. Cells were stained with CD3-APC-H7, CD4-FITC, CD8-PerCP, IFN-γ-APC, TNF-α-BV421 and Fixable Viability Stain 510 (BD Biosciences, San Jose, Calif., USA), permeabilized and washed with Permeabilization Reagent/Diluent and fixation-permeabilization buffer (AH Diagnostics, Aarhus, Denmark). Cells were acquired with a FACS Canto II (BD Biosciences) and analyzed using FACSDiva software. All effector cell stimulations were run in triplicate wells if not otherwise specified.

The subject of assay [3] is PBMCs from the CALRmut donor. Put plainly: Spontaneous ex-vivo ELISPOT, 48 hour assay. As to conditions: high background, rules of Moodie et al. Here is the method:
We established a CALRLong1-specific T-cell culture from a CALRmut patient with a strong […] T-cell response against CALRLong1 peptide. PBL were stimulated three times with autologous dendritic cells, and T-cells were analyzed using intracellular cytokine staining (ICS). […] However, CD4^+ T cells responded to CALRLong1 (FIG. 7). […] Since CALRLong4 peptide comprises the shared 36 amino acid C-terminus found in all CALRmut patients, we tested PBMCs from the donor for a spontaneous ex-vivo ELISPOT response in a 48 hour assay.

Assay [4] deals with PBMC from healthy donors. Nature of the assay: TNF-α ELISPOT on PBMC from healthy donors. As to conditions: ten healthy controls analyzed per peptide. The source says:
Of note, all patients with a TNF-α response against CALRLong1 and CALRLong2 did also display an IFN-g response in ELISPOT (FIGS. 14-15).

Assay [5] has as its system PBMC / T-cells from CALRmut MPN patients. Put plainly: Intracellular cytokine staining of patient PBMC and of DC-stimulated T-cell culture. Conditions: PBMC from patient C39. The source says:
Next, we chose to analyze PBMC from four patients with a response against CALR Long1 and CALR Long2 peptides using intracellular cytokine staining. Although this method is less sensitive than ELISPOT, it allows elucidating which immune cells secrete the cytokine identified in ELISPOT. Hereby, we could determine whether the reacting cells were T-cells and, if so, if the responding cells were CD4 T-cells or CD8 T-cells. In short, cells were stimulated with CALR Long1 or with a scrambled peptide ([…]) as control. For surface markers we employed 4 μl NIR, 10 μl CD4 PerCP, 2 μl CD8 Pacific Blue, and 10 μl CD3 FITC and for intracellular staining we used 2 μl anti-TNF-α and anti IFN-γ antibodies conjugated with either PE-Cy7 or APC. Washing, permeabilization and staining procedures followed previously described methods (Munir, Andersen et al., 2013). […] To confirm that the responses identified indeed were T-cell responses against CALR Long1, we generated dendritic cells from patient C42 using previously described methods. Autologous PBMC were stimulated three times with the dendritic cells, which had been pulsed with CALR Long1, and we hereby generated a CALR Long1 specific T-cell culture. […] The frequent detection of T-cell responses indicate, that the CALR mutations encode highly immunogenic cancer antigens, which represent ideal targets for anti-cancer immune therapy.

Assay [6] concerns PBMC from CALR-mutated MPN patients. Put plainly: IFN-γ ELISPOT for spontaneous T-cell responses in PBMC from CALR-mutated MPN patients.
Excerpt: The study was approved by the local ethics committee, and all patients signed informed consent, in accordance with the Helsinki Declaration before study participation. We included 31 CALRmut MPN patients with the following diagnoses: ET (n=13), PMF (n=12), post-ET MF (n=4), or prefibrotic MF (n=2). Peripheral blood mononuclear cells (PBMC) were isolated with Lymphoprep and frozen in fetal calf serum with 10% dimethyl sulfoxide. First, we scrutinized PBMC from two MPN patients for the presence of spontaneous T-cell responses against two CALR derived peptides, CALR Long1 ([…], SEQ ID NO: 2) and CALR Long2 ([…], SEQ ID NO: 3) using the highly sensitive and solid interferon gamma (IFN-γ) Enzyme-Linked ImmunoSPOT (ELISPOT) secretion assays (FIGS. 1A and 1C). The ELISPOT has proven to be the central assay in studies focusing on identification on novel tumor antigens by the characterization of novel tumor antigen responses in PBMC from cancer patients. Thus, this assay has previously been utilized for the identification of novel tumor antigens based on spontaneous immunity in cancer patients (Andersen et al., 2005).
as §1
After the promising responses in the first two patients we analyzed PBMC from additional 29 CALR-mutated MPN patients. […] Of the 24 evaluable patients, 10 had ET and 14 had MF; the latter group comprised 11 patients with PMF, 2 with post-ET MF, and 1 with prefibrotic MF. […] Furthermore, we examined PBMC from two patients in a tumor necrosis factor alpha (TNF-α) ELISPOT.

With “RRMRRTRRKMRRKMSPARPRTSCREACLQGWTEA (listed as Homo sapiens) [CALRLong4]”, in the assay on PBMC from healthy donors [1], the “immune responses of healthy donors in IFN-γ ELISPOT” value is on record as “strong immune responses”; the “healthy donors with a significant response in IFN-γ ELISPOT” value was determined as 9; the “healthy donors with a significant response in IFN-γ ELISPOT, percentage” value is reported as 100%. In addition, the “response of CD4^+ T cells of the CALRLong1 bulk culture to peptide stimulation” value in assay [2] was “reacted”. Besides, the “spontaneous ex-vivo ELISPOT response” value in assay [3] is “significant response”.

As for “TRRKMRRKMSPARPRTSCREACLQGWTEA (listed as Homo sapiens) [CALRLong2]”, the “healthy controls with a significant TNF-α response” value in the assay with PBMC from healthy donors [4] is “Five”. Further, the “type of T-cell response, intracellular cytokine staining” value in assay [5] was “CD4 T-cell response”. In the assay on PBMC from healthy donors [1], the “immune responses of healthy donors in IFN-γ ELISPOT” value is “strong immune responses”; the “healthy donors with a significant response in IFN-γ ELISPOT” value amounted to 18; the “healthy donors with a significant response in IFN-γ ELISPOT, percentage” value is 78%. The “response of CD4^+ T cells of the CALRLong1 bulk culture to peptide stimulation” value in assay [2] is recorded as “did not respond”. Also, the “patients that responded in IFN-γ ELISPOT, percentage” value in assay [6] (18 evaluable patients for CALR Long1, 24 for CALR Long2) is recorded as 42%. The “patients that responded in IFN-γ ELISPOT” value in assay [6] (18 evaluable patients for CALR Long1, 24 for CALR Long2, p-value ≤0.05 deemed a T-cell response) was 10 patients. The “response confirmed in additional ELISPOT” value in assay [6] (samples from 5 of the responding patients retested) amounted to 4 patients.
